Like-named read-outs stand apart in the source and are kept apart here.
Tested on: DTH response in mice
Type: in vivo
Settings: for Inhibition of mouse ear swelling: 24 h after challenge
Method: The anti-inflammatory and anti-allergic effects of compound 1a was assessed in a mouse model of skin delayed-type hypersensitivity (DTH) reactions and compared to a vehicle control and to the reference drug, dexamethasone. DTH reactions are antigen-specific cell-mediated immune responses, driven primarily by T helper type 1 (Th1) cells, similar to the tuberculin immunization response. The immune reaction induced by an ovalbumin challenge to animals previously sensitized with ovalbumin in Complete Freund's Adjuvant, is characterized by swelling (edema) at the site of challenge, e.g. the mouse ear. Dexamethasone, an anti-inflammatory steroid, reduces cell-mediated immune responses and was employed to validate the responsiveness of the assay to pharmacological treatment.
Female BALB/cJW mice were bred at the University of Lodz, Lodz, Poland and housed in groups of 8 in makrolon cages with a 12 h light-dark cycle. Mice were given free access to food (Agropol S. j., Motycz, Poland) and water.
Sensitization: The protein antigen, ovalbumin, was reconstituted in PBS at 4 mg/ml. An ovalbumin-CFA emulsion was prepared by mixing the protein solution with the CFA suspension at a ratio of 1:1, using two Luer-lock syringes. The emulsion was tested by putting a drop of emulsion onto PBS; if the emulsion remained as a tight droplet on the PBS, the emulsion was deemed ready. Mice were sensitized by subcutaneously injecting 25 μL of emulsion into each side of the tail (100 μg ovalbumin per mouse).
Challenge: On the sixth day after sensitization, DTH was elicited by challenging animals subcutaneously (gauge 30 needle, B. Braun Melsungen, Melsungen, Germany) in the left ears with 10 μL of a 1% suspension of heat-aggregated ovalbumin (HOVA) (100 μg ovalbumin per mouse). The right ears were administered subcutaneously with PBS and served to determine the individual differences in ear thicknesses. HOVA was prepared by heating a 5% solution of ovalbumin in saline for 1 h at 80° C. with occasional swirling. After cooling to room temperature and centrifugation (400 g, 10 min at 4° C.), the pellet was washed twice with saline, resuspended at 2% in PBS and aliquots stored at −30° C. Before injection, HOVA was diluted with an equal volume of PBS and sonicated. Ear thickness was measured with a precise spring-loaded caliper (Art. No. 7309, Mitutoyo, Kawasaki, Japan) before challenge, and 24 h after challenge.
Sensitization, challenge and ear thickness measurement were performed under anesthesia (ketamine 80 mg/kg plus xylazine 8 mg/kg, intraperitoneally).
The anti-inflammatory effects of compound 1a were compared to a vehicle control (0.5% methyl cellulose solution) and to the reference drug, dexamethasone. Test compound was given at 25 or 100 mg/kg orally by gavage (Art. No. 432093, Harvard Apparatus GmbH, March-Hugstetten, Germany) 16 h and 3 h before sensitization and then twice daily with the final dose given 3 h prior to ear challenge (a total of 14 administrations). Dexamethasone was given at 0.1 or 1 mg/kg orally by gavage 3 h before sensitization and once daily with the final dose given 3 h prior to antigen challenge (a total of 7 administrations). All administrations were given in a volume of 10 mL/kg.
To account for individual variability, the increase in right ear thickness, before and 24 h after administration of PBS, was subtracted from the HOVA-induced increase in left ear thickness. […]
Mean and standard deviation (SD) were calculated from individual ear edema values. […]

**Q.** `CCCCCCCCCCCCCC[N+](C)(C)CC(=O)N(C)C[C@H](O)[C@@H](O)[C@H](O)[C@H](O)CO` [Compound 1a, N-(2-(Dimethyl(tetradecyl)ammonio)acetyl)-N-methyl-D-glucamine chloride] was tested. Which “Inhibition of mouse ear swelling” value (25 mg/kg orally twice daily) did it give?
**A.** 43%

**Q.** And the “Inhibition of mouse ear swelling” value (100 mg/kg orally twice daily)?
**A.** 50%

**Q.** What about the “inhibition relative to that of the high dose of dexamethasone” value (25 or 100 mg/kg orally twice daily vs dexamethasone 1 mg/kg) of the same compound?
**A.** up to 94%
